The subject of experiment [1] is HUVEC. The experiment in a line: Antiangiogenic activity against HUVEC cells assessed as wound closure at IC50 incubated for 72 hrs by wound healing assay (reference value: 98.518 %). The experiment is classed as functional, Homo sapiens.
Experiment [2] has as its system HUVEC. The experiment in a line: Antiangiogenic activity against HUVEC cells assessed as decrease in healing rate at IC50 incubated for 72 hrs by wound healing assay relative to control. The experiment is classed as functional, Homo sapiens. Further details: scale not given: the % may be the effect or the level left.
The subject of experiment [3] is MDA-MB-468. The experiment in a line: Induction of apoptosis in human MDA-MB-468 cells assessed as increase in caspase-3 level incubated for 2 hrs by ELISA (reference value: 2.109 ng/ml). The experiment is classed as functional. (In an ELISA, binding on a coated surface is turned into a signal by an enzyme label.)

In the case of `CCN(CC)CCNC(=O)c1c(C)[nH]c(/C=C2\C(=O)Nc3ccc(F)cc32)c1C` [SUNITINIB], the Activity is 57.777% in experiment [1], 41% in experiment [2] and 21.83 ng/mL in experiment [3].

For the origin of these results see ChEMBL document CHEMBL5356993, “Novel pyrazolo[3,4-d]pyrimidine derivatives: design, synthesis, anticancer evaluation, VEGFR-2 inhibition, and antiangiogenic activity” (RSC Med Chem, 2023).
